Assay results: ChEMBL document CHEMBL1136232, “Novel inhibitors of an emerging target in Mycobacterium tuberculosis; substituted thiazolidinones as inhibitors of dTDP-rhamnose synthesis” (2003)
≈ marks a conversion by molar mass, not a printed value. Calls of active or inactive are those of the source. The calls are words filed in the database; no cut-off is given here.

Legend:
[1] = tested on: Mycobacterium tuberculosis; assay: Inhibitory activity against Mycobacterium tuberculosis H37Ra; type: functional
[2] = tested on: Mycolicibacterium smegmatis; assay: Percentage inhibition against Rm1C at 20 uM
[3] = tested on: Mycolicibacterium smegmatis; assay: Percentage inhibition against Rm1BCD at 20 uM
[4] = tested on: Mycolicibacterium smegmatis; assay: Percentage inhibition against Rm1D at 20 uM; NA is not active
[5] = tested on: Mycobacterium tuberculosis; assay: Percentage inhibition against Mycobacterium tuberculosis at a concentration of 20 uM; type: functional
[6] = tested on: Mycolicibacterium smegmatis; assay: Percentage inhibition against Rm1D at 20 uM
[7] = tested on: Mycolicibacterium smegmatis; assay: Percentage inhibition against Rm1C at 20 uM; NA is not active

| SMILES | MIC [1] [µg/mL] | inhibition at 20 µM [5] [%] | also measured |
| --- | --- | --- | --- |
| CCn1c2ccccc2c2ccc(C3SCC(=O)N3C(Cc3c[nH]c4ccccc34)C(=O)OC)cc21 (stereo unspecified) | > 200 | – | inhibition [2]: 48%; inhibition [3]: 45%; inhibition [4]: inactive |
| O=C(O)C(Cc1cc2ccccc2[nH]1)N1C(=O)CSC1c1ccc(-c2ccccc2)cc1 (stereo unspecified) | 50 (≈ 113 µM) | 66.5 | – |
| COc1cc(C2SC(C)C(=O)N2C(Cc2ccc([N+](=O)[O-])cc2)C(=O)O)cc(OC)c1O (stereo unspecified) | 25 (≈ 54.1 µM) | – | inhibition [3]: 42%; inhibition [6]: 71%; inhibition [7]: inactive |
| CCOC(=O)C(C(C)C)N1C(=O)C(C)SC1c1ccc2c(c1)c1ccccc1n2CC (stereo unspecified) | 25 (≈ 57 µM) | 52 | – |
| CC[C@H](C)C(C(=O)OC)N1C(=O)CSC1c1ccc(N(C)C)cc1 (stereo partly specified) | > 200 | 110 | – |
| CCOC(=O)C(C(C)C)N1C(=O)C(C)SC1c1ccc(-c2ccccc2)cc1 (stereo unspecified) | 50 (≈ 126 µM) | 52.5 | – |
| CCOC(=O)C(C)N1C(=O)CSC1c1cccc(Oc2ccccc2)c1 (stereo unspecified) | 50 (≈ 135 µM) | 51 | – |
| CCOC(=O)CCC(C(=O)OCC)N1C(=O)CSC1c1cccc(Oc2ccccc2)c1 (stereo unspecified) | 50 (≈ 109 µM) | 64 | – |
| CCn1c2ccccc2c2cc(C3SC(C)C(=O)N3C(Cc3c[nH]c4ccccc34)C(=O)O)ccc21 (stereo unspecified) | 50 (≈ 100 µM) | 70.5 | – |
| COC(=O)C(CCSC)N1C(=O)CSC1c1ccc(N(C)C)cc1 (stereo unspecified) | > 200 | 100 | – |
| CCOC(=O)C(C(C)C)N1C(=O)C(C)SC1c1cccc(OC)c1O (stereo unspecified) | 25 (≈ 68 µM) | 60 | – |
